Test results: patent publication US11400063B2, “Early administration of low-dose colchicine after myocardial infarction” (INSTITUT DE CARDIOLOGIE DE MONTREAL, priority 2019, dated 2022)
Values joined by “and” are separate entries in the source; they are usually repeats but may differ in a detail not shown here. Equal values may be shown once.

Test system: patients recruited within 30 days after a myocardial infarction
Assay: COLCOT randomized double-blind trial, efficacy end points, colchicine 0.5 mg once daily vs placebo
Type: in vivo, human
Details: for Total primary endpoint events, Rate Ratio (95% CI): Negative binomial model, marginal rate ratio; for Rate of primary endpoint events per 100 patient-months: first and recurrent events
Experimental: We performed a randomized, double-blind trial involving patients recruited within 30 days after a myocardial infarction. The patients were randomly assigned to receive either low-dose colchicine (0.5 mg once daily) or placebo. A total of 4745 patients were enrolled; 2386 patients were assigned to the colchicine group, and 2379 to the placebo group. Patients were followed for a median of 22.6 months.
The primary efficacy end point was a composite of death from cardiovascular causes, resuscitated cardiac arrest, myocardial infarction (e.g., acute myocardial infraction or type II myocardial infarction), stroke, or urgent hospitalization for angina leading to coronary revascularization. The components of the primary end point and safety were also assessed.
COLCOT was an international multicenter, randomized, double-blinded trial that randomly assigned patients to receive either low-dose colchicine (0.5 mg once daily) or placebo. The study protocol and main results have been published (see, Tardif et al., N Engl J Med 2019). […] Main exclusion criteria were severe heart failure, reduced left ventricular ejection fraction (<35%), recent stroke (<3 months), type 2 MI, recent (<3 years) or planned coronary artery bypass graft (CABG), history of cancer (<3 years), and inflammatory bowel disease or chronic diarrhea. All patients enrolled in the trial benefited from percutaneous coronary intervention whenever indicated and guidelines-directed management of CV disease prior to randomization (see. Tardif et al., N Engl J Med 2019).
Clinical follow-up consisted of evaluations at 1 and 3 months after randomization and every 3 months thereafter. An independent clinical endpoint committee, blinded to trial-group assignment, adjudicated clinical endpoints. The trial was locally approved by the various institutional review boards, and all patients signed a written informed consent before enrollment.
The primary efficacy endpoint was a composite of CV death, resuscitated cardiac arrest, MI, stroke, or urgent hospitalization for angina requiring coronary revascularization. The secondary endpoints consisted of the components of the primary efficacy endpoint, all-cause death, and a composite of CV death, resuscitated cardiac arrest, MI, or stroke. Exploratory endpoints included all coronary revascularizations, including both elective and urgent coronary revascularizations.
The primary efficacy endpoint was a composite of cardiovascular death, MI, ischemic stroke, and urgent coronary revascularization. Secondary efficacy endpoints consisted of the components of the primary endpoint, composite of cardiovascular death, MI, and ischemic stroke, as well as deep vein thrombosis or pulmonary embolus, and atrial fibrillation (AF). To maximize consistency in pooling efficacy endpoints among trials, the primary and secondary composite efficacy and stroke endpoints in COLCOT were modified to meet the definition of primary and stroke endpoints of the LoDoCo2 trial. Therefore, adjudicated events of resuscitated cardiac arrest and non-ischemic stroke in COLCOT were excluded from the pooled primary endpoint. The component endpoint of stroke was also restricted to include only ischemic strokes. Incidence rates and hazards ratios (HRs) were calculated for the new primary composite endpoint and ischemic stroke endpoint using individual patient data from COLCOT.
The COLCOT trial was performed as follows. A randomized, double-blind trial involving patients recruited within 30 days after a myocardial infarction was performed. The patients were randomly assigned to receive either low-dose colchicine (0.5 mg once daily) or placebo. A total of 4745 patients were enrolled; 2386 patients were assigned to the colchicine group, and 2379 to the placebo group. […]

[1] = COLCOT endpoint modified to LoDoCo2 definition
[2] = intention-to-treat population, listed as colchicine
[3] = intention-to-treat, colchicine vs placebo
[4] = intention-to-treat, colchicine vs placebo, listed as colchicine

`COc1cc2c(c(OC)c1OC)-c1ccc(OC)c(=O)cc1[C@@H](NC(C)=O)CC2` [Colchicine, colchicine] was tested, and the “Total number of primary endpoint events (first and recurrent)” value (52949 patient-months of follow-up) was 154, the “Primary efficacy composite endpoint, no. of patients with event/total no. of patients” value (All patients) was 131/2366 and the “Total primary endpoint events, Hazard Ratio (95% CI)” value (Andersen-Gill model) was 0.69 (0.54; 0.88). The “Primary composite outcome (cardiovascular mortality, myocardial infarction, ischemic stroke, urgent revascularization), Events %” value [1] was “(5.5%)”, the “Primary composite outcome (cardiovascular mortality, myocardial infarction, ischemic stroke, urgent revascularization), HR (95% CI)” value [1] was 0.77 (0.61-0.97) and the “Primary composite outcome (cardiovascular mortality, myocardial infarction, ischemic stroke, urgent revascularization), Events N” value (COLCOT endpoint modified to LoDoCo2 definition, N = 2366) was 130 N. For the same compound, the “Ischemic stroke, Events %” value (COLCOT, only ischemic strokes) was 0.2%, the “Ischemic stroke, Events N” value (COLCOT, only ischemic strokes) was 4 N and the “Ischemic stroke, HR (95% CI)” value (COLCOT, only ischemic strokes) was 0.25 (0.08-0.75). For the same compound, the “Ischemic stroke, HR (95% CI)” value (COLCOT, only ischemic strokes, listed as colchicine) was 0.25, the “Number of patients with 0 primary endpoint events per patient” value (N = 2366) was 2235 and the “Number of patients with 1 primary endpoint event per patient” value (N = 2366) was 111. The “Number of patients with 2 primary endpoint events per patient” value (N = 2366) was 18, the “Number of patients with 3 primary endpoint events per patient” value (N = 2366) was 1 and the “Number of patients with 4 primary endpoint events per patient” value (N = 2366) was 1. For the same compound, the “Total primary endpoint events, Rate Ratio (95% CI)” value was 0.66 (0.51; 0.86), the “Total primary endpoint events, Rate Ratio (95% CI)” value (listed as colchicine) was 0.66 and the “Total primary endpoint events, Hazard Ratio (95% CI)” value (WLW model, 1st Event) was 0.77 (0.61; 0.96). For the same compound, the “Total primary endpoint events, Hazard Ratio (95% CI)” value (WLW model, 2nd Event) was 0.73 (0.48; 1.11), the “Total primary endpoint events, Hazard Ratio (95% CI)” value (WLW model, 3rd Event) was 0.64 (0.37; 1.10) and the “Total primary endpoint events, Hazard Ratio (95% CI)” value (WLW model, Average) was 0.77 (0.61; 0.96). The “Rate of primary endpoint events per 100 patient-months” value was 0.29 per 100 patient-months, the “Rate of primary endpoint events per 100 patient-months” value (listed as colchicine) was 029 per 100 patient-months and the “Atrial fibrillation, number of patients” value (intention-to-treat population) was 36 number. The “Atrial fibrillation, percent of patients” value (intention-to-treat population) was “(1.5) percent”, the “Death from cardiovascular causes, number of patients” value (intention-to-treat population) was 20 number and the “Death, number of patients” value (intention-to-treat population) was 43 number. For the same compound, the “Death, percent of patients” value (intention-to-treat population) was “(1.8) percent”, the “Deep venous thrombosis or pulmonary embolus, number of patients” value (intention-to-treat population) was 10 number and the “Deep venous thrombosis or pulmonary embolus, percent of patients” value (intention-to-treat population) was “(0.4) percent”. For the same compound, the “Myocardial infarction, number of patients” value (intention-to-treat population) was 89 number, the “Resuscitated cardiac arrest, number of patients” value (intention-to-treat population) was 5 number and the “Resuscitated cardiac arrest, percent of patients” value (intention-to-treat population) was “(0.2) percent”. The “Secondary composite end point, percent of patients” value (intention-to-treat population) was “(4.7) percent”, the “Stroke, number of patients” value (intention-to-treat population) was 5 number and the “Stroke, percent of patients” value (intention-to-treat population) was “(0.2) percent”. The “Urgent hospitalization for angina leading to revascularization, number of patients” value (intention-to-treat population) was 25 number, the “Primary composite end point, number of patients” value (intention-to-treat population, N = 2366, median follow-up 22.6 months) was 131 number and the “Primary composite end point, percent of patients” value [2] was 5.5%. For the same compound, the “Secondary composite end point, percent of patients” value [2] was 4.7%, the “Atrial fibrillation, Hazard Ratio (95% CI)” value [3] was 0.93 (0.59-1.46) and the “Death from cardiovascular causes, Hazard Ratio (95% CI)” value [3] was 0.84 (0.46-1.52). For the same compound, the “Death, Hazard Ratio (95% CI)” value [3] was 0.98 (0.64-1.49), the “Deep venous thrombosis or pulmonary embolus, Hazard Ratio (95% CI)” value [3] was 1.43 (0.54-3.75) and the “Myocardial infarction, Hazard Ratio (95% CI)” value [3] was 0.91 (0.68-1.21). The “Primary composite end point, Hazard Ratio (95% CI)” value [3] was 0.77 (0.61-0.96), the “Resuscitated cardiac arrest, Hazard Ratio (95% CI)” value [3] was 0.83 (0.25-2.73) and the “Secondary composite end point, Hazard Ratio (95% CI)” value [3] was 0.85 (0.66-1.10). The “Stroke, Hazard Ratio (95% CI)” value [3] was 0.26 (0.10-0.70), the “Urgent hospitalization for angina leading to revascularization, Hazard Ratio (95% CI)” value [3] was 0.50 (0.31-0.81) and 0.50 (0.31.-0.81) and the “Death from cardiovascular causes, Hazard Ratio (95% CI)” value [4] was 0.84. The “Myocardial infarction, Hazard Ratio (95% CI)” value [4] was 0.91, the “Primary composite end point, Hazard Ratio (95% CI)” value [4] was 0.77 and the “Resuscitated cardiac arrest, Hazard Ratio (95% CI)” value [4] was 0.83. For the same compound, the “Secondary composite end point, Hazard Ratio (95% CI)” value [4] was 0.85, the “Stroke, Hazard Ratio (95% CI)” value [4] was 0.26 and the “Urgent hospitalization for angina leading to revascularization, Hazard Ratio (95% CI)” value [4] was 0.50. For the same compound, the “Secondary composite end point, number of patients” value (intention-to-treat, death from cardiovascular causes, resuscitated cardiac arrest, myocardial infarction, and stroke) was 111 number, the “reduction of the risk of ischemic CV events” value (main COLCOT results, post-MI setting) was 23% and the “Time to first primary endpoint, Adjusted Hazard Ratio (95% CI)” value (multivariable Cox regression model, colchicine vs. placebo, 4745 observations) was 0.78 (0.62-0.98). The “MI, % of patients” value (per-protocol population) was “(3.4%)”, the “MI, no. of patients” value (per-protocol population) was 77 no and the “Primary endpoint, % of patients” value (per-protocol population) was “(5.1%)”.
